The test deals with Fecal coliforms. The test is classed as cell-based.

Values joined by “and” are separate entries in the source; they are usually repeats but may differ in a detail not shown here. Equal values may be shown once.

In the case of `CC(=O)OO` [A, peroxyacetic acid], the Category is >1000 and <1000.

Values taken from US11167162B2 (priority 2017, dated 2021).
